Source: US11780805B2, “Carbamoyl phenylalaninol compounds and uses thereof” (AXSOME MALTA LTD., priority 2016, dated 2023)

Assays:
[1] = target: D2S dopamine receptor (D2S) (Homo sapiens, UniProt P14416); assay: Competitive radioligand binding assay, D2S; conditions: compound at 10 μM; radioligand 7-OH-DPAT; cell membrane fractions; read-out: % Inhibition of Binding at Each Transporter or Receptor Target, D2S
Description: (§1) Compound 2 was tested for pharmacological activity in comparison to APC. Eight binding assays were carried out to provide a binding profile for each compound, including binding to dopamine transporter (DAT), norepinephrine transporter (NET), serotonin (5-HT) transporter (SERT), alpha2A adrenergic receptor (Alpha2A), alpha2C adrenergic receptor (Alpha2C), D2S dopamine receptor (D2S), D2L, dopamine receptor (D2L), and vesicular monoamine transporter (VMAT2). Competitive binding assays using a radiolabeled ligand were carried out with each compound at 10 μM. The radioligand for each target was as follows: DAT—BTCP, NET—protriptyline, SERT—imipramine Alpha2A—yohimbine, Alpha2C—yohimbine, D2S—7-OH-DPAT, D2L—butaclamol, VMAT2—tetrabenazine. The source of the receptors and transporters were prepared cell membrane fractions.

[2] = target: norepinephrine transporter (NET) (Homo sapiens, UniProt P23975); assay: Competitive radioligand binding assay, NET; conditions: compound at 10 μM; radioligand protriptyline; cell membrane fractions; read-out: % Inhibition of Binding at Each Transporter or Receptor Target, NET
norepinephrine transporter (NET), sequence (P23975 whole entry, species assumed): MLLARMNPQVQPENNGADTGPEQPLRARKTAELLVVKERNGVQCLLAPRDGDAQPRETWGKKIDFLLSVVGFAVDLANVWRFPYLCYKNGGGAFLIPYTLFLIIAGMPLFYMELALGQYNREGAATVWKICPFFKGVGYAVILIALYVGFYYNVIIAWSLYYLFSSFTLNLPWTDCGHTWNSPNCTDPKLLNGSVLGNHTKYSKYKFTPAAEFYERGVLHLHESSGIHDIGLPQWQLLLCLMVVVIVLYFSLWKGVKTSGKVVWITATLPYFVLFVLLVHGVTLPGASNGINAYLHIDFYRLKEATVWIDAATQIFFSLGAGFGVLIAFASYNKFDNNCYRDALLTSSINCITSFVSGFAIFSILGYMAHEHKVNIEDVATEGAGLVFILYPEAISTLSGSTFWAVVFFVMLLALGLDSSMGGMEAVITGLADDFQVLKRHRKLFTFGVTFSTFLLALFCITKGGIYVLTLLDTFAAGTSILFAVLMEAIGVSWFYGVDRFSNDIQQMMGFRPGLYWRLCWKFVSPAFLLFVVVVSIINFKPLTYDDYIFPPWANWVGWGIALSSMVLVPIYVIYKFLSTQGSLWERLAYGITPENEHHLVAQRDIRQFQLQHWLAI
Description: as §1

[3] = target: serotonin (5-HT) transporter (SERT) (Homo sapiens, UniProt P31645); assay: Competitive radioligand binding assay, SERT; conditions: compound at 10 μM; radioligand imipramine; cell membrane fractions; read-out: % Inhibition of Binding at Each Transporter or Receptor Target, SERT
serotonin (5-HT) transporter (SERT), sequence (P31645 whole entry, species assumed): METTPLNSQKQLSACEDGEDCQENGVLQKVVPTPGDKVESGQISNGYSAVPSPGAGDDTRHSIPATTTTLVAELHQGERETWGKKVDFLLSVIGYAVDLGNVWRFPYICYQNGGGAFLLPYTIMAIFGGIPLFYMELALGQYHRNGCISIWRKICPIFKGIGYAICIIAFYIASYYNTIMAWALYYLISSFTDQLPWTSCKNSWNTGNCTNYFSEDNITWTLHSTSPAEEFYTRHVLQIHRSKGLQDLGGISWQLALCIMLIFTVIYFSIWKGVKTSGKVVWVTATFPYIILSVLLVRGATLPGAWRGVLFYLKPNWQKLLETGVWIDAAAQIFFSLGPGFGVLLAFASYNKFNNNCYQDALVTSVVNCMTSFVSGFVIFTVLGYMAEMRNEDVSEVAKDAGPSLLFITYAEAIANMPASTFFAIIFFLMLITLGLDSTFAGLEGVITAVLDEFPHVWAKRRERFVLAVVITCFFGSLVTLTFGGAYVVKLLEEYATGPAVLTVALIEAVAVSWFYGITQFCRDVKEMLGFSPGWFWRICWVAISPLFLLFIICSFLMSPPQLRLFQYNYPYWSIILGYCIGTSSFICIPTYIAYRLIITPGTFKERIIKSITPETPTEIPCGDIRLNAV
Description: as §1

[4] = target: T1, alpha2C adrenergic receptor (Alpha2C) (Homo sapiens, UniProt P18825); assay: Competitive radioligand binding assay, Alpha2C; conditions: compound at 10 μM; radioligand yohimbine; cell membrane fractions; read-out: % Inhibition of Binding at Each Transporter or Receptor Target, Alpha2C
T1 sequence (P18825 1-462): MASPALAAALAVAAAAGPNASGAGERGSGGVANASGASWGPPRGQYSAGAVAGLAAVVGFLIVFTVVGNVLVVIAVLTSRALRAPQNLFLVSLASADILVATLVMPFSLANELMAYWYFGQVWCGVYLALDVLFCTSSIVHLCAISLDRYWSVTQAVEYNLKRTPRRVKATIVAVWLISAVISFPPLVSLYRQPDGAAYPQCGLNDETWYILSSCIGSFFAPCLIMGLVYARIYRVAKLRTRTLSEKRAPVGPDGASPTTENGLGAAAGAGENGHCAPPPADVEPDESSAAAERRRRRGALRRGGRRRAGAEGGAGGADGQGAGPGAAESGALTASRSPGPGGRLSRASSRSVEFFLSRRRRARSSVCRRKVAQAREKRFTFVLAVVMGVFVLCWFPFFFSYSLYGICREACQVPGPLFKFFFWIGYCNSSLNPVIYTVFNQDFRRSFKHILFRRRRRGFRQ
Description: as §1

[5] = target: T2, alpha2A adrenergic receptor (Alpha2A) (Homo sapiens, UniProt P08913); assay: Competitive radioligand binding assay, Alpha2A; conditions: compound at 10 μM; radioligand yohimbine; cell membrane fractions; read-out: % Inhibition of Binding at Each Transporter or Receptor Target, Alpha2A
T2 sequence (P08913 1-465): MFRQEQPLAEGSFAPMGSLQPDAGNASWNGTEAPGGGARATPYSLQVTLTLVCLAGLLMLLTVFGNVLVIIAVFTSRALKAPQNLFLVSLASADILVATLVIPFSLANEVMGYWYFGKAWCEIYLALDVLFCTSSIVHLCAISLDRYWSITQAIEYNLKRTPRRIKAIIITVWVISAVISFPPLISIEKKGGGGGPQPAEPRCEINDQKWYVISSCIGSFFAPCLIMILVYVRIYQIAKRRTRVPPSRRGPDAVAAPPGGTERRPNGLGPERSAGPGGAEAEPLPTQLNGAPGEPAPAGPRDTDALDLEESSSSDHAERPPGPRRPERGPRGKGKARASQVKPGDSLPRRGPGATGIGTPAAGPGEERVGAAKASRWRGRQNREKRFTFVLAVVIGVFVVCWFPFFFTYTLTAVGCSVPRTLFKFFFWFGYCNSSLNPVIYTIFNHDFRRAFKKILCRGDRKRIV
Description: as §1

[6] = target: vesicular monoamine transporter (VMAT2) (Homo sapiens, UniProt Q05940); assay: Competitive radioligand binding assay, VMAT2; conditions: compound at 10 μM; radioligand tetrabenazine; cell membrane fractions; read-out: % Inhibition of Binding at Each Transporter or Receptor Target, VMAT2
vesicular monoamine transporter (VMAT2), sequence (Q05940 whole entry, species assumed): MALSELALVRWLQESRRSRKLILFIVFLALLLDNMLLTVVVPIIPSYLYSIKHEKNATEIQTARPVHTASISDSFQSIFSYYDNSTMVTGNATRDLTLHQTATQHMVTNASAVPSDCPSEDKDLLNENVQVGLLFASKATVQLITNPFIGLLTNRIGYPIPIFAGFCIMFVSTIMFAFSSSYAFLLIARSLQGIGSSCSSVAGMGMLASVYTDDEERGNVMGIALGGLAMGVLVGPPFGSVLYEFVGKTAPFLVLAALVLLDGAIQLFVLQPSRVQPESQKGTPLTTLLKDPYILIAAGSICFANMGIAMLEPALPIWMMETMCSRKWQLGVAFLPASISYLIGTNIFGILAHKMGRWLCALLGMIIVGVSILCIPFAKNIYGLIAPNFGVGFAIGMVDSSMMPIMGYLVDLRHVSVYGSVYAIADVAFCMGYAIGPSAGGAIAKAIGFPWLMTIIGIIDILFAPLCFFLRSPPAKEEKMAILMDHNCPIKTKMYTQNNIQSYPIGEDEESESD
Description: as §1

[7] = target: dopamine transporter (DAT) (Homo sapiens, UniProt Q01959); assay: Competitive radioligand binding assay, DAT; conditions: compound at 10 μM; radioligand BTCP; cell membrane fractions; read-out: % Inhibition of Binding at Each Transporter or Receptor Target, DAT
dopamine transporter (DAT), sequence (Q01959 whole entry, species assumed): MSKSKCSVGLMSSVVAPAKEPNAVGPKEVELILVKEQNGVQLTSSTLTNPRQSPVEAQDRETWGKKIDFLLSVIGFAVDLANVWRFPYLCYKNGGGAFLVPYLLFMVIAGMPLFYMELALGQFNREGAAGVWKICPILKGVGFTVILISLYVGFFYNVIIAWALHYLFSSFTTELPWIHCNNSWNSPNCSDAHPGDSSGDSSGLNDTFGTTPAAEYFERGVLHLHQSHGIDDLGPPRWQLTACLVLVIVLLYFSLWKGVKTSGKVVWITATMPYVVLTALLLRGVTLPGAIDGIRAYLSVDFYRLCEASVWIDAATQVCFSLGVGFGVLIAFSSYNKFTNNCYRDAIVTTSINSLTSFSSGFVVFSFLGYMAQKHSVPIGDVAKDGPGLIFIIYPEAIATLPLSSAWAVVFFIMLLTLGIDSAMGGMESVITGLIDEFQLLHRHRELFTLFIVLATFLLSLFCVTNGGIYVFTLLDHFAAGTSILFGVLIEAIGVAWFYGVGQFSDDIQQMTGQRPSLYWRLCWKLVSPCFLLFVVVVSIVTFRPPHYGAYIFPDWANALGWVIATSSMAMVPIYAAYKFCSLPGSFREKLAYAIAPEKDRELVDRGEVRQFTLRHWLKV
Description: as §1

[8] = target: D2L, dopamine receptor (D2L) (Homo sapiens, UniProt P14416); assay: Competitive radioligand binding assay, D2L; conditions: compound at 10 μM; radioligand butaclamol; cell membrane fractions; read-out: % Inhibition of Binding at Each Transporter or Receptor Target, D2L
D2L, dopamine receptor (D2L), sequence (P14416 whole entry): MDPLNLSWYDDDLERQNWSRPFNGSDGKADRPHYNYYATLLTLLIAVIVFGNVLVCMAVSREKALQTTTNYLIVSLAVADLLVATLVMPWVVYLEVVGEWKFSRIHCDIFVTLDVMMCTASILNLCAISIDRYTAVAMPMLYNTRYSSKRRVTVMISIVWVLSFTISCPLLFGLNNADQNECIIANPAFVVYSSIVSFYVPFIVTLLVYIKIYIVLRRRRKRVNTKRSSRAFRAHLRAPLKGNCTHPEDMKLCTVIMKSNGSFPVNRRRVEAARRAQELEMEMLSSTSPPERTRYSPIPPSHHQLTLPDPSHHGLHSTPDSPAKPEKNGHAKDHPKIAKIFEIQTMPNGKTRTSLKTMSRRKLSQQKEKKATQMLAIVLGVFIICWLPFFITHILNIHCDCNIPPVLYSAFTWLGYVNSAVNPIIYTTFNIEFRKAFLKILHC
Description: as §1

D2S dopamine receptor (D2S), sequence (P14416 1-414 isoform P14416-2): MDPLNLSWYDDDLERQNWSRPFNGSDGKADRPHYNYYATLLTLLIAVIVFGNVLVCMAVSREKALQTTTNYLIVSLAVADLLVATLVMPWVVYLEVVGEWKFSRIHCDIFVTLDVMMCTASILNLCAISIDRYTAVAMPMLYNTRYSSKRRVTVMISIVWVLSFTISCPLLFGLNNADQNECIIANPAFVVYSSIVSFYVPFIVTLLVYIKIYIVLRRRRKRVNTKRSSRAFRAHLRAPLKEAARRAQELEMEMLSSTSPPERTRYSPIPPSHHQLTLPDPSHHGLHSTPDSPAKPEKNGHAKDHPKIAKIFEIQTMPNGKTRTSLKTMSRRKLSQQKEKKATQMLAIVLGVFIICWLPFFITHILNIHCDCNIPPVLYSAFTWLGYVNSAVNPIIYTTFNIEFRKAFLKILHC

SMILES	inhibition at 10 µM [1]	inhibition at 10 µM [2]	inhibition at 10 µM [3]	inhibition at 10 µM [4]	inhibition at 10 µM [5]	inhibition at 10 µM [6]	inhibition at 10 µM [7]	inhibition at 10 µM [8]
NC(=O)NC(=O)OC[C@H](N)Cc1ccccc1 [Compound 2, D-phenylalaninol allophanate]	11.8%	2.7%	3.4%	52.1%	28%	-1%	80.6%	-5.5%
NC(=O)OC[C@H](N)Cc1ccccc1 [APC, (R)-2-amino-3-phenylpropyl carbamate]	18.7%	6.2%	4%	7.4%	16.5%	12%	81.4%	-3.4%
